In US20090155318A1, “PROCESS TO FORM NANO-SIZED MATERIALS, THE COMPOSITIONS AND USES THEREOF” (priority 2006, published 2009):

Assay: solubility (saturation concentration) of the salts in water versus temperature, FIG. 2
Assay type: physicochemical
Conditions: at 0° C., aqueous, read from FIG. 2

saturation concentration in water: about 0.41 moles/100 g H2O
SMILES: [Cl-].[K+] [KCl]
